The record followed here is patent US12398154B2, “Azaquinazoline pan-KRas inhibitors” (Mirati Therapeutics, Inc., priority 2020, dated 2025).

A value given as a limit tells only on which side of the number the result lay.

One experiment has as its system pERK in H460 cells. In words: Inhibition of KRas phosphorylation of ERK (Cisbio HTRF pERK assay). As to conditions: Homo sapiens, NCI-H460, read-out: Inhibition (HTRF IC50) of KRas-mediated Phosphorylation of ERK, H460.
The test system of another experiment is pERK in ASPC1 cells. The experiment is described as above. To be noted: Homo sapiens, ASPC1, read-out: Inhibition (HTRF IC50) of KRas-mediated Phosphorylation of ERK, AsPC-1.
Another experiment has as its target KRas G12V (Homo sapiens, UniProt P01116, G12V). Description: biochemical.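 Also: KRas binding measured by TR-FRET displacement at room temperature, IC50 fitted from percent of control values.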
The target of a further experiment is KRas G12D (Homo sapiens, UniProt P01116, G12D). Description: biochemical.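 Also: TR-FRET displacement binding assay on KRas, read after a one-hour incubation at room temperature, IC50 fitted from percent-of-control values.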
The test system of another experiment is pERK in HCT116 cells. Description: Inhibition of KRas phosphorylation of ERK (Cisbio HTRF pERK assay). As to conditions: Homo sapiens, HCT-116, read-out: Inhibition (HTRF IC50) of KRas-mediated Phosphorylation of ERK, HCT116. A general note: In TR-FRET formats the signal depends on donor and acceptor labels being close together.
Another experiment relates to pERK in H727 cells. The experiment is described as above. To be noted: Homo sapiens, NCI-H727, read-out: Inhibition (HTRF IC50) of KRas-mediated Phosphorylation of ERK, H727.
The subject of experiment [1] is phospho-ERK in HCT116 (G13D) cells. Description: Inhibition of KRas-mediated phosphorylation of ERK (in-cell western). As to conditions: Homo sapiens, HCT-116, 3 hours compound, phospho-ERK normalized to GAPDH. Type of experiment: cell-based. In outline:
(§1)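 Following fixation in formaldehyde and permeabilization in cold methanol, ERK phosphorylated at Thr202/Tyr204 was quantified against GAPDH.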

Experiment [2] relates to phospho-ERK in PSN-1 (G12R) cells. The experiment is described as above. As to conditions: Homo sapiens, PSN1, 3 hours compound, phospho-ERK normalized to GAPDH. Type of experiment: cell-based. In outline: as §1
The test system of experiment [3] is phospho-ERK in NCI-H460 (Q61H) cells. The description is as above. As to conditions: Homo sapiens, NCI-H460, 3 h, 3 hours compound, phospho-ERK normalized to GAPDH. Type of experiment: cell-based. The procedure, abridged: as §1
Experiment [4] relates to phospho-ERK in A549 (G12S) cells. The experiment is described as above. Type of experiment: cell-based. As to conditions: Homo sapiens, 3 hours compound, phospho-ERK normalized to GAPDH. The procedure, abridged:
as §1

In experiment [5] the test system is phospho-ERK in NCI-H358 (G12C) cells. The experiment is described as above. Type of experiment: cell-based. As to conditions: Homo sapiens, 3 hours compound, phospho-ERK normalized to GAPDH. In outline: as §1
Experiment [6] deals with phospho-ERK in MKN1 (WTdep) cells. The experiment is described as above. Type of experiment: cell-based. As to conditions: Homo sapiens, MKN-1, 3 hours compound, phospho-ERK normalized to GAPDH. The procedure, abridged: as §1
The subject of experiment [7] is phospho-ERK in NCI-H727 (G12V) cells. The experiment is described as above. Type of experiment: cell-based. As to conditions: Homo sapiens, NCI-H727, 3 h, 3 hours compound, phospho-ERK normalized to GAPDH. In outline: as §1
Experiment [8] concerns phospho-ERK in AsPC-1 (G12D) cells. Described as above. Type of experiment: cell-based. To be noted: Homo sapiens, ASPC1, 3 h, 3 hours compound, phospho-ERK normalized to GAPDH. In outline:
as §1

A further experiment has as its target KRas G12R (Homo sapiens, UniProt P01116, G12R). In words: biochemical.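 Also: TR-FRET displacement assay of compound binding to KRas, read after one hour at room temperature, potency from a four-parameter fit of percent-of-control values.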

Chain of KRas G12V (P01116 1-169 isoform P01116-2 G12V): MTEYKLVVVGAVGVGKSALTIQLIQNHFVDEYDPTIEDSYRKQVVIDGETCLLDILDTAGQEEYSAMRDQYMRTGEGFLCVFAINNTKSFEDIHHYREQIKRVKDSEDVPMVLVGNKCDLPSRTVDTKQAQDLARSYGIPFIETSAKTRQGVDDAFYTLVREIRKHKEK
Chain of KRas G12R (P01116 1-169 isoform P01116-2 G12R): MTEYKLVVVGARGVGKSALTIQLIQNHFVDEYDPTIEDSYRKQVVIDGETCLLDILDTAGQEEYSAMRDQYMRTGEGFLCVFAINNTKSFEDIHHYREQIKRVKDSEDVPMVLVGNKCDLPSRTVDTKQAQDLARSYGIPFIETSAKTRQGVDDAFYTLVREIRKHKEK
Chain of KRas G12D (P01116 1-169 isoform P01116-2 G12D): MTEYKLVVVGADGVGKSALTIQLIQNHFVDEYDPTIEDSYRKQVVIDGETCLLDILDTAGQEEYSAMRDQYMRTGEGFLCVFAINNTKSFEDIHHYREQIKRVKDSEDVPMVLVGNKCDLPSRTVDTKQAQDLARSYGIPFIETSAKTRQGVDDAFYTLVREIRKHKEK

For `CCc1c(F)ccc2cc(O)cc(-c3ncc4c(N5CC6CC(O)CC5C6)nc(OC[C@@]56CCCN5C[C@H](F)C6)nc4c3F)c12` (stereo partly drawn) [Example 58], the concentration for half-maximal inhibition (IC50) (as a rule, the concentration that gives 50% inhibition) with pERK in H460 cells is 69 nM; in the experiment with pERK in ASPC1 cells, 75 nM; on KRas G12V, at most 2 nM; at KRas G12D, 6 nM; with pERK in HCT116 cells, 179 nM; in the experiment on pERK in H727 cells it was 45 nM. The IC50 was determined as 1460 nM in [1]; 1310 nM in experiment [2]; 111 nM in experiment [3]; 455 nM in [4]; 24 nM in experiment [5]; 23 nM in experiment [6]. The IC50 in experiment [7] is 242 nM; in experiment [8], 24 nM; against KRas G12R it was at most 2 nM.
Turning to `CCc1c(F)ccc2cc(O)cc(-c3ncc4c(N5CCCn6nc(N)cc6C5)nc(OC[C@@]56CCCN5C[C@H](F)C6)nc4c3F)c12` [Example 61, 4-(4-(2-amino-7,8-dihydro-4H-pyrazolo[1,5-a][1,4]diazepin-5 (6H)-yl)-8-fluoro-2-(((2R,7aS)-2-fluorohexahydro-1H-pyrrolizin-7a-yl)methoxy)pyrido[4,3-d]pyrimidin-7-yl)-5-ethyl-6-fluoronaphthalen-2-ol], the IC50 was 336 nM in the experiment on pERK in H460 cells; 126 nM in the experiment on pERK in ASPC1 cells; at most 2 nM against KRas G12V; at most 2 nM at KRas G12D; 1640 nM with pERK in HCT116 cells; 250 nM in the experiment with pERK in H727 cells. The concentration for half-maximal inhibition (IC50) in experiment [1] is 518 nM; in experiment [2], at least 10000 nM; in experiment [3], 550 nM; in [4] it was 699 nM; in experiment [5], 162 nM; in [6] it was 46 nM. Also, the IC50 was 1110 nM in [7], 306 nM in experiment [8] and at most 2 nM against KRas G12R.
Consider `CCc1c(F)ccc2cc(O)cc(-c3ncc4c(N5CCOCC(CO)C5)nc(OC[C@@]56CCCN5C[C@H](F)C6)nc4c3F)c12` (stereo partly drawn) [Example 74, 5-ethyl-6-fluoro-4-(8-fluoro-2-(((2R,7aS)-2-fluorotetrahydro-1H-pyrrolizin-7a(5H)-yl)methoxy)-4-(6-(hydroxymethyl)-1,4-oxazepan-4-yl)pyrido[4,3-d]pyrimidin-7-yl)naphthalen-2-ol], for which the IC50 was 151 nM in the experiment on pERK in H460 cells; 65 nM in the experiment with pERK in ASPC1 cells; at most 2 nM at KRas G12V; at most 2 nM at KRas G12D; 336 nM in the experiment on pERK in HCT116 cells; 84 nM in the experiment on pERK in H727 cells. The IC50 in experiment [1] was 662 nM; in experiment [2], at least 10000 nM; in experiment [3] it was 55 nM; in [4] it was 63 nM; in experiment [5], 10 nM; in experiment [6], 8 nM. The IC50 in [7] was 355 nM; in [8], 72 nM; against KRas G12R, 3 nM.
`CCc1c(F)ccc2cc(O)cc(-c3ncc4c(NCc5cccnc5N)nc(OC[C@@]56CCCN5C[C@H](F)C6)nc4c3F)c12` [Example 136, 4-(4-(((2-aminopyridin-3-yl)methyl)amino)-8-fluoro-2-(((2R,7aS)-2-fluorohexahydro-1H-pyrrolizin-7a-yl)methoxy)pyrido[4,3-d]pyrimidin-7-yl)-5-ethyl-6-fluoronaphthalen-2-ol]: the IC50 with pERK in H460 cells was 83 nM; in the experiment with pERK in ASPC1 cells it was 318 nM; against KRas G12V it was at most 2 nM; at KRas G12D, 3 nM; in the experiment with pERK in HCT116 cells it was 243 nM; in the experiment on pERK in H727 cells it was 52 nM. Moreover, the concentration for half-maximal inhibition (IC50) was 631 nM in experiment [1]; at least 10000 nM in experiment [2]; 75 nM in experiment [3]; 19 nM in experiment [4]; 4 nM in [5]; 7 nM in experiment [6]. In addition, the IC50 in experiment [7] was 181 nM; in [8] it was 351 nM; against KRas G12R it was at most 2 nM.
Regarding `CCc1c(F)ccc2cc(O)cc(-c3ncc4c(N5CCCC6(CNC6=O)C5)nc(OC[C@@]56CCCN5C[C@H](F)C6)nc4c3F)c12` (stereo partly drawn) [Example 146], the IC50 with pERK in H460 cells is 327 nM; in the experiment with pERK in ASPC1 cells, 92 nM; at KRas G12V, at most 2 nM; against KRas G12D it was at most 2 nM; in the experiment with pERK in HCT116 cells it was 607 nM; with pERK in H727 cells, 400 nM. Moreover, the IC50 came to 1000 nM in experiment [1]; 2530 nM in experiment [2]; 204 nM in [3]; 1060 nM in [4]; 15 nM in experiment [5]; 22 nM in experiment [6]. Besides, the IC50 in [7] was at least 10000 nM; in experiment [8], 22 nM; on KRas G12R, 3 nM.
With `C#Cc1c(F)ccc2cc(O)cc(-c3ncc4c(N5CCCC6(CC(=O)N6)C5)nc(OC[C@@]56CCCN5C[C@H](F)C6)nc4c3F)c12` (stereo partly drawn) [Example 148], the 50% inhibitory concentration (IC50) with pERK in H460 cells is 132 nM; with pERK in ASPC1 cells, 59 nM; on KRas G12V, at most 2 nM; on KRas G12D it was 3 nM; in the experiment on pERK in HCT116 cells, 2210 nM; with pERK in H727 cells, 110 nM. In addition, the IC50 in experiment [1] is at least 10000 nM; in [2], 3780 nM; in experiment [3], 68 nM; in experiment [4], 550 nM; in [5] it was 15 nM; in experiment [6], 76 nM. Also, the IC50 in experiment [7] is 260 nM; in experiment [8], 105 nM; on KRas G12R it was at most 2 nM.
Turning to `C#Cc1c(F)ccc2cc(O)cc(-c3ncc4c(NCc5c[nH]c6ncccc56)nc(OC[C@@]56CCCN5C[C@H](F)C6)nc4c3F)c12` [Example 150, 4-(4-(((1H-pyrrolo[2,3-b]pyridin-3-yl)methyl)amino)-8-fluoro-2-(((2R,7aS)-2-fluorohexahydro-1H-pyrrolizin-7a-yl)methoxy)pyrido[4,3-d]pyrimidin-7-yl)-5-ethynyl-6-fluoronaphthalen-2-ol], the half-inhibitory concentration (IC50) with pERK in H460 cells is 167 nM; with pERK in ASPC1 cells it was 66 nM; on KRas G12V it was at most 2 nM; against KRas G12D, at most 2 nM; in the experiment on pERK in HCT116 cells it was 115 nM; in the experiment with pERK in H727 cells, 12 nM. The concentration for half-maximal inhibition (IC50) is 996 nM in experiment [1]; at least 10000 nM in experiment [2]; 362 nM in [3]; 45 nM in experiment [4]; 4 nM in experiment [5]; 13 nM in experiment [6]. The IC50 was 626 nM in experiment [7], 435 nM in experiment [8] and at most 2 nM against KRas G12R.
Take `CCc1c(F)ccc2cc(O)cc(-c3ncc4c(NCc5ccc6nccn6c5)nc(OC[C@@]56CCCN5C[C@H](F)C6)nc4c3F)c12` [Example 156, 5-ethyl-6-fluoro-4-(8-fluoro-2-(((2R,7aS)-2-fluorohexahydro-1H-pyrrolizin-7a-yl)methoxy)-4-((imidazo[1,2-a]pyridin-6-ylmethyl)amino)pyrido[4,3-d]pyrimidin-7-yl)naphthalen-2-ol]: the IC50 was 143 nM with pERK in H460 cells; 125 nM in the experiment on pERK in ASPC1 cells; at most 2 nM on KRas G12V; at most 2 nM on KRas G12D; 349 nM in the experiment on pERK in HCT116 cells; 72 nM with pERK in H727 cells. Further, the IC50 in experiment [1] is 323 nM; in [2], at least 10000 nM; in [3], 141 nM; in experiment [4], 33 nM; in [5], 10 nM; in experiment [6], 14 nM. Also, the IC50 is 189 nM in experiment [7], 335 nM in experiment [8] and at most 2 nM against KRas G12R.
